Laboratory results reported in PubChem BioAssay (NCI).
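Cultured in 96-well plates, cells were exposed to test compound for 48 hours across five concentrations. TGI: concentration producing complete growth inhibition.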

How the values were obtained:
Assay in all cases: DTP human tumour cell line panel, 48 h
[1] = tested on: SN12C renal
[2] = tested on: HCC-2998 colon
[3] = tested on: RXF 393 renal
[4] = tested on: LOX IMVI melanoma
[5] = tested on: RPMI-8226 leukemia
[6] = tested on: NCI-H460 lung
[7] = tested on: IGROV1 ovarian
[8] = tested on: DMS 273 small cell lung
[9] = tested on: MALME-3M melanoma
[10] = tested on: TK-10 renal
[11] = tested on: UACC-257 melanoma
[12] = tested on: OVCAR-3 ovarian
[13] = tested on: K-562 leukemia
[14] = tested on: SNB-78 CNS
[15] = tested on: SNB-19 CNS
[16] = tested on: KM20L2 colon
[17] = tested on: OVCAR-8 ovarian
[18] = tested on: SK-MEL-2 melanoma
[19] = tested on: SK-MEL-28 melanoma
[20] = tested on: SF-539 CNS
[21] = tested on: SNB-75 CNS
[22] = tested on: SK-OV-3 ovarian
[23] = tested on: SF-295 CNS
[24] = tested on: A549 NSCLC
[25] = tested on: HL-60(TB) leukemia
[26] = tested on: A498 renal
[27] = tested on: 786-0 renal
[28] = tested on: MOLT-4 leukemia
[29] = tested on: NCI-H522 lung
[30] = tested on: EKVX NSCLC
[31] = tested on: LXFL 529 NSCLC
[32] = tested on: SF-268 CNS
[33] = tested on: M19-MEL melanoma
[34] = tested on: COLO 205 colon
[35] = tested on: XF 498 CNS
[36] = tested on: UACC-62 melanoma
[37] = tested on: CCRF-CEM leukemia
[38] = tested on: DLD-1 colon
[39] = tested on: SK-MEL-5 melanoma
[40] = tested on: CAKI-1 renal
[41] = tested on: NCI-H226 lung
[42] = tested on: HOP-62 NSCLC
[43] = tested on: HOP-92 NSCLC
[44] = tested on: M14 melanoma
[45] = tested on: HCT-15 colon
[46] = tested on: NCI-H23 lung
[47] = tested on: U251 CNS
[48] = tested on: UO-31 renal
[49] = tested on: KM12 colon
[50] = tested on: HT29 colon
[51] = tested on: MDA-MB-231 breast
[52] = tested on: PC-3 prostate
[53] = tested on: MDA-N
[54] = tested on: SW-620 colon
[55] = tested on: MCF7 breast
[56] = tested on: BT-549 breast
[57] = tested on: DU-145 prostate
[58] = tested on: SR leukemia
[59] = tested on: MDA-MB-435
[60] = tested on: HCT-116 colon
[61] = tested on: ACHN renal
[62] = tested on: OVCAR-4 ovarian
[63] = tested on: NCI/ADR-RES ovarian
[64] = tested on: HS 578T breast
[65] = tested on: OVCAR-5 ovarian
[66] = tested on: T-47D breast

`COc1cccc(N2C(=O)[C@H]3CC(C)c4c([nH]c5ccccc45)[C@H]3C2=O)c1` (some centres undefined) was tested, and the TGI [1] was over 100 µM, the TGI [2] was over 100 µM and the TGI [3] was 38.8 µM. For the same compound, the TGI [4] was over 100 µM, the TGI [5] was over 100 µM and the TGI [6] was over 100 µM. It also gave a TGI [7] of over 100 µM, a TGI [8] of over 100 µM and a TGI [9] of over 100 µM. The TGI [10] was over 100 µM, the TGI [11] was over 100 µM and the TGI [12] was over 100 µM. It also gave a TGI [13] of over 100 µM, a TGI [14] of over 100 µM and a TGI [15] of over 100 µM. The TGI [16] was over 100 µM, the TGI [17] was over 100 µM and the TGI [18] was over 100 µM. It also gave a TGI [19] of over 100 µM, a TGI [20] of 93.1 µM and a TGI [21] of 42.1 µM. It also gave a TGI [22] of 72.2 µM, a TGI [23] of 67.6 µM and a TGI [24] of over 100 µM. For the same compound, the TGI [25] was over 100 µM, the TGI [26] was over 100 µM and the TGI [27] was 50.5 µM. It also gave a TGI [28] of over 100 µM, a TGI [29] of over 100 µM and a TGI [30] of over 100 µM. For the same compound, the TGI [31] was over 100 µM, the TGI [32] was over 100 µM and the TGI [33] was over 100 µM. For the same compound, the TGI [34] was over 100 µM, the TGI [35] was over 100 µM and the TGI [36] was over 100 µM. It also gave a TGI [37] of over 100 µM, a TGI [38] of over 100 µM and a TGI [39] of over 100 µM. For the same compound, the TGI [40] was over 100 µM, the TGI [41] was over 100 µM and the TGI [42] was 42.5 µM. The TGI [43] was 80.5 µM, the TGI [44] was over 100 µM and the TGI [45] was over 100 µM. For the same compound, the TGI [46] was over 100 µM, the TGI [47] was over 100 µM and the TGI [48] was over 100 µM. For the same compound, the TGI [49] was over 100 µM and the TGI [50] was over 100 µM.

Work on `NCCCCC(N)C(=O)NCCNc1ccc(NCCNC(=O)C(N)CCCCN)c2c1C(=O)c1ccccc1C2=O` (centres undefined) yielded a TGI [51] of over 100 µM, a TGI [1] of 99.1 µM and a TGI [2] of over 100 µM. The TGI [3] was 21.6 µM, the TGI [4] was over 100 µM and the TGI [5] was over 100 µM. It also gave a TGI [6] of over 100 µM, a TGI [7] of over 100 µM and a TGI [9] of over 100 µM. The TGI [10] was over 100 µM, the TGI [11] was over 100 µM and the TGI [12] was over 100 µM. The TGI [13] was over 100 µM, the TGI [52] was over 100 µM and the TGI [53] was over 100 µM. It also gave a TGI [15] of over 100 µM, a TGI [54] of over 100 µM and a TGI [55] of over 100 µM. It also gave a TGI [17] of over 69 µM, a TGI [18] of over 100 µM and a TGI [56] of 20.1 µM. It also gave a TGI [19] of over 100 µM, a TGI [20] of over 100 µM and a TGI [21] of over 100 µM. The TGI [22] was over 100 µM, the TGI [23] was over 100 µM and the TGI [57] was over 100 µM. It also gave a TGI [24] of over 100 µM, a TGI [58] of over 100 µM and a TGI [25] of over 100 µM. It also gave a TGI [26] of over 100 µM, a TGI [27] of over 100 µM and a TGI [59] of over 100 µM. The TGI [60] was over 100 µM, the TGI [28] was over 100 µM and the TGI [29] was over 100 µM. It also gave a TGI [30] of over 100 µM, a TGI [32] of over 100 µM and a TGI [34] of over 100 µM. It also gave a TGI [61] of over 100 µM, a TGI [62] of over 100 µM and a TGI [36] of over 100 µM. The TGI [37] was over 100 µM, the TGI [39] was over 100 µM and the TGI [40] was over 100 µM. The TGI [63] was over 100 µM, the TGI [41] was over 100 µM and the TGI [64] was over 100 µM. For the same compound, the TGI [42] was over 100 µM, the TGI [43] was over 100 µM and the TGI [65] was over 100 µM. For the same compound, the TGI [44] was over 100 µM, the TGI [66] was over 100 µM and the TGI [45] was over 100 µM. The TGI [46] was over 100 µM, the TGI [47] was over 100 µM and the TGI [48] was over 100 µM. The TGI [49] was over 100 µM and the TGI [50] was over 100 µM.
